Data: patent US20240150839A1, “METHODS FOR PREDICTING RESPONSIVENESS OF PROSTATE CANCER PATIENTS TO PARP INHIBITORS” (Memorial Sloan Kettering Cancer Center, priority 2019, published 2024)

How the values were obtained:
Assay type in all cases: cell-based, human
[1] = test system: BRCA2 SMARTpool siRNA-transfected LAPC4 cells; assay: MTT cell growth of BRCA2 siRNA-transfected LAPC4 cells with enzalutamide; settings: BRCA2 siRNA LAPC4 vs scrambled siRNA; ENZ 20 μM, 72 hours after transfection (FIG. 1F)
Method: Cells infected with scrambled (scr) gRNA were used as a negative control. Cas9 and RHoGDI served as loading controls. […] Nuclei were stained with DAPI (blue). […] P-values were determined by Student's t-test. ***P<0.001. […] Equivalent volume of DMSO was used as placebo treatment. Cell growth was measured by BRDU incorporation assay (see Example 1) (±SD); P-values were determined by Student's t-test.***P<0.001. […] Parental LAPC4 cells were transiently transfected with BRCA2-specific SMARTpool siRNA for 96 hours. Total RNA was isolated, and BRCA2 mRNA was analyzed by qPCR. Scrambled SMARTpool siRNA-transfected cells were used as control (top). BRCA2- or scrambled SMARTpool siRNA-transfected LAPC4 cells were cultured in charcoal-stripped medium (CSS) or complete medium supplemented with enzalutamide (ENZ; 20 μM) for 72 hours after transfection (bottom). Equivalent volume of DMSO was used as placebo treatment. Cell growth was measured by MTT assay; SD, p-values were determined by Student's t-test. […] Control and CRISPR-edited LNCaP cells (10^3 cells/well) were mixed with Matrigel, and 3D cell cultures (organoids) were grown for 7 days in androgen-depleted, growth factor-enriched media. […]
(§1) Cell Proliferation Assay by MTT, BrdU and Crystal Violet. […] MTT crystals were dissolved in isopropanol and absorbance was measured in a BioTek plate reader at […] and represented graphically.

[2] = test system: BRCA2-null LNCaP cells; assay: Cell growth (BrdU, crystal violet, MTT) of BRCA2 CRISPR-edited LNCaP cells with enzalutamide; settings: BRCA2-null LNCaP vs scr control; complete medium, 7 days (FIGS. 1E, 7D, 7F)
Method: Cells infected with scrambled (scr) gRNA were used as a negative control. Cas9 and RHoGDI served as loading controls. […] Nuclei were stained with DAPI (blue). […] P-values were determined by Student's t-test. ***P<0.001. […] Equivalent volume of DMSO was used as placebo treatment. Cell growth was measured by BRDU incorporation assay (see Example 1) (±SD); P-values were determined by Student's t-test.***P<0.001. […] Parental LAPC4 cells were transiently transfected with BRCA2-specific SMARTpool siRNA for 96 hours. Total RNA was isolated, and BRCA2 mRNA was analyzed by qPCR. Scrambled SMARTpool siRNA-transfected cells were used as control (top). […] Cell growth was measured by MTT assay; SD, p-values were determined by Student's t-test. […]
Cells infected with scrambled (scr) gRNA were used as control. […] Genotypes are detected by PCR amplification followed by being treated with T7 endonuclease. […] Cell growth was measured by MTT assay (see Example 1); SD, P-values determined by Student's t-test. *P<0.05, **P<0.01, ***P<0.001. […] Cell growth was measured by crystal violet staining assay (see Example 1) (±SD); P-values determined by Student's t-test. […] Cell growth was measured by MTT assay (see Example 1) (±SD); P-values determined by Student's t-test. […] Total RNA was isolated, and BRCA2 mRNA was analyzed by qPCR. […] Cell growth was measured by MTT assay; SD, P-values determined by Student's t-test. […]

[3] = test system: BRCA2 SMARTpool siRNA-transfected LNCaP cells; assay: MTT cell growth of BRCA2 siRNA-transfected LNCaP cells with enzalutamide; settings: BRCA2 siRNA LNCaP vs scrambled siRNA; ENZ 20 μM, 96 hours post transfection (FIG. 7G)
Method: Cells infected with scrambled (scr) gRNA were used as control. Equal amount of proteins was loaded in WedgeWell 6% gel and western blot was performed. ˜400 kDa BRCA2 band is indicated by arrow. GAPDH served as loading controls for western blot and qPCR. […] Genotypes are detected by PCR amplification followed by being treated with T7 endonuclease. Wt and mutant BRCA2 are indicated by red and green arrows, respectively. […] Equivalent volume of DMSO was used as placebo treatment. Cell growth was measured by MTT assay (see Example 1); SD, P-values determined by Student's t-test. *P<0.05, **P<0.01, ***P<0.001. […] Cell growth was measured by crystal violet staining assay (see Example 1) (±SD); P-values determined by Student's t-test. […] Cell growth was measured by MTT assay (see Example 1) (±SD); P-values determined by Student's t-test. […] Total RNA was isolated, and BRCA2 mRNA was analyzed by qPCR. […] Cell growth was measured by MTT assay; SD, P-values determined by Student's t-test. […]
as §1

[4] = test system: MSK-PCa3 organoid; assay: MTT growth of mCRPC organoids with PARPi; settings: compared to benign organoid; 3 days (FIG. 6E)
Excerpt: (§2) Near-diploid benign prostate organoid is used as a control. […] GAPDH served as the loading control. […] The graphs show cell growth measured by MTT assay (±SD); P-trends determined by 2-way ANOVA.
(§3) Cell Culture. Human prostate cancer cells LNCaP, 22RV1, DU145, PC3, and VCaP were obtained from ATCC (Manassas, VA). LNCaP-C42 cells were obtained from VitroMed (Burlington, NC). The LNCaP-Abl cell line, E006AA-T cells, PC3M LAPC4 cell line were obtained. These cells were maintained in 10% FBS (LNCaP, LNCaP-C42, LAPC4, VCaP, 22RV1, DU145, PC3, PC3M, and E006AA) or 10% charcoal-stripped serum (LNCaP-Abl) supplemented with 2 mM of L-glutamine and 1×antibiotic/antimycotic (Gemini Bio-Products, Sacramento, CA) at 37° C. in 5% CO2. Human prostate epithelial cell RWPE1 was obtained from ATCC and cultured in keratinocyte serum-free medium (Thermo Fisher Scientific, Waltham, MA) at 37° C. in 5% CO2. Cells were authenticated by human short tandem repeat profiling at the MSK Integrated Genomics Operation Core. Patient-derived human prostate cancer organoids were cultured as described. Gao et al., Cell 159:176-87 (2014).
(§4) Cell Proliferation Assay by MTT, BrdU and Crystal Violet. For MTT assay, cells were plated at 2.5×10^3 per well in 96-well plates in complete media (10% FBS) or media supplemented with 10% charcoal-stripped serum. Cells were either treated with DMSO or with indicated inhibitors. After indicated times, cells were incubated in 0.5 mg/mL MTT (Invitrogen) for 1 hour at 37° C. MTT crystals were dissolved in isopropanol and absorbance was measured in a BioTek plate reader at […] and represented graphically.

[5] = test system: MSK-PCa1 organoid; assay: MTT growth of mCRPC organoids with PARPi; settings: compared to benign organoid; 3 days (FIG. 6E)
Excerpt: as §2, §3, §4

[6] = test system: BRCA2-null RWPE1 cells; assay: MTT cell growth with olaparib; settings: BRCA2-null vs control RWPE1; 3 μM and 10 μM olaparib, 7 days (FIG. 3G)
Method: Scr-CRISPR and BRCA2-CRISPR2 cells were also transfected with non-targeting shRNA (scr-Sh) for control of shRNA. GAPDH served as the loading control. […] Nuclei were stained with DAPI (blue). […] Control cells were transfected with empty vector. […] GAPDH served as the loading control. […] LNCaP cells were used as control. GAPDH served as the loading control. […] Nuclei were stained with DAPI (blue). […] Equivalent volume of DMSO was used as placebo treatment. Cell growth was measured by MTT assay; SD, P-values determined by Student's t-test. […] LNCaP-BRCA2-RB1 or control cells were incubated in charcoal-stripped medium (CSS) for 24 hours followed by treatment with 1 nM R1881 for another 48 hours (in CSS). […] After 24 hours, cells in the lower side of the chamber were fixed, stained, photographed in 100× magnification (top panel), and counted and represented in the form of the bar graph (bottom panel). P-values were determined by Student's t-test.
(§5) To generate BRCA2 knockout RWPE1 cells, BRCA2 gRNA2 was cloned into LentiCRISPRv2-GFP backbone which constitutively expresses Cas9 and GFP. Lentiviral infected cells were selected by FACS sorting for GFP positive cells (twice) and analyzed by western blot. […] Loss of BRCA2 in the pooled populations of LNCaP cells was analyzed by western blot using BRCA2-specific antibodies and this pooled population of cells was used for the following experiments. […]

[7] = test system: LNCaP-BRCA2-RB1 cells; assay: MTT cell growth with PARP inhibitors; settings: LNCaP-BRCA2-RB1 vs BRCA2-null LNCaP; olaparib 3 μM, talazoparib 0.005 μM (FIG. 2E)
Method: (§6) Scr-CRISPR and BRCA2-CRISPR2 cells were also transfected with non-targeting shRNA (scr-Sh) for control of shRNA. RHoGDI served as the loading control. […] Equivalent volume of DMSO was used as placebo treatment. Cell growth was measured by MTT assay; SD, p-values were determined by Student's t-test. […] FIG. 2C (2nd and 3rd rows) show the immunofluorescence (400× magnification) of F-actin filament stained with phalloidin in indicated CRISPR/shRNA-infected LNCaP cells. Nuclei were stained with DAPI (blue). […] 5×10^3 indicated cells were plated on the top of Boyden chamber (see Example 1) in serum-free media; 10% serum in the bottom chamber was used as chemo-attractant. After 48 hours, cells in the lower side of the chamber were fixed, stained, and photographed (100× magnification). […] Nuclei were stained with DAPI (blue). […] The graphs show cell growth measured by MTT assay (±SD); P-values determined by Student's t-test. […] RNA sequencing was analyzed by Partek.
(§7) To generate BRCA2-RB1 knockout-knockdown LNCaP cells, parental LNCaP cells were first infected with lentivirus containing BRCA2 gRNA or scr gRNA. Pooled population of the stable cells were established by puromycin selection and analyzed by western blot and qPCR. BRCA2-knockout or scr LNCaP cells were infected with lentivirus containing RB1 shRNA followed by hygromycin selection. BRCA2-knockout or scr (gRNA) LNCaP cells also infected with lentiviral non-targeting shRNA (scr-shRNA) were used as control. Cells within 4-10 passages after stable selection were used for the following experiments.
as §4

[8] = test system: RB1 knockdown LNCaP cells; assay: MTT cell growth with PARP inhibitors; settings: RB1 knockdown vs control LNCaP cells; olaparib 3 μM, talazoparib 0.005 μM (FIG. 2E)
Method: as §6, §7, §4

[9] = test system: BRCA2-null LNCaP cells; assay: MTT cell growth of BRCA2 CRISPR-edited LNCaP cells with PARP inhibitors or cisplatin; settings: BRCA2 knockout LNCaP vs control gRNA (scr) cells; complete medium, 6 days (FIG. 7C)
Method: Cells infected with scrambled (scr) gRNA were used as control. Equal amount of proteins was loaded in WedgeWell 6% gel and western blot was performed. ˜400 kDa BRCA2 band is indicated by arrow. GAPDH served as loading controls for western blot and qPCR. […] Genotypes are detected by PCR amplification followed by being treated with T7 endonuclease. Wt and mutant BRCA2 are indicated by red and green arrows, respectively. […] Equivalent volume of DMSO was used as placebo treatment. Cell growth was measured by MTT assay (see Example 1); SD, P-values determined by Student's t-test. *P<0.05, **P<0.01, ***P<0.001. FIGS. 7D-7E show the growth curve (FIG. 7D) and a bar graph (FIG. 7E) representing the cell growth of LNCaP BRCA2 CRISPR-edited and non-targeting control gRNA (scr) infected cells in complete medium supplemented with enzalutamide (ENZ; indicated concentration) for 7 days or charcoal-stripped medium (CSS) for 5 days, respectively. Equivalent volume of DMSO was used as placebo treatment. Cell growth was measured by crystal violet staining assay (see Example 1) (±SD); P-values determined by Student's t-test. […] Equivalent volume of DMSO was used as placebo treatment. Cell growth was measured by MTT assay (see Example 1) (±SD); P-values determined by Student's t-test. […] Total RNA was isolated, and BRCA2 mRNA was analyzed by qPCR. […] Cell growth was measured by MTT assay; SD, P-values determined by Student's t-test.
as §5, §1

[10] = test system: 22RV1 cells; assay: MTT cell growth with PARPi or cisplatin; settings: 22RV1, BRCA2 T3033Nfs*11, RB1-wt; cisplatin 500 nM, talazoparib 5 nM, 6 days (FIG. 11D)
Method: as §4, with “The ploidy of each cell line is indicated. […] Equivalent volume of DMSO was used as placebo treatment. Cell growth was measured by MTT assay (see Example 1); SD, each point indicates the MTT count of each well of 96-well plate, P-values determined by Student's t-test. **P<0.01, ****P<0.0001. […] Cell Proliferation” for “Cell Proliferation”

CNC(=O)c1ccc(N2C(=S)N(c3ccc(C#N)c(C(F)(F)F)c3)C(=O)C2(C)C)cc1F [enzalutamide]
growth in complete media supplemented with enzalutamide [1]: resistance to androgen depletion
resistance to enzalutamide (cell growth) [2]: relative resistance
growth in complete media supplemented with enzalutamide [3]: resistance to androgen depletion

O=C(c1cc(Cc2n[nH]c(=O)c3ccccc23)ccc1F)N1CCN(C(=O)C2CC2)CC1 [olaparib]
organoid growth (MTT) [4]: growth reduction
organoid growth (MTT) [5]: growth reduction
sensitivity (cell growth, MTT) [6]: enhanced sensitivity
cell growth inhibition (MTT) [7]: more cell growth inhibition
inhibitory effect on cell growth (MTT) [8]: could not be detected

N.N.[Cl][Pt][Cl] [cisplatin]
sensitivity (cell growth, MTT) [9]: enhanced sensitivity
sensitivity (cell growth, MTT) [10]: sensitivity
